Measurements from paper PMC9520760 (ACS Omega, 2022).

Experiments:
HEK-293 cells = assay: MTT toxicity in normal cell line HEK-293; type: cell-based; settings: Homo sapiens, HEK293, 48 h, read-out: IC50 (Mean ± SEM) HEK-293
MCF-7 cells = assay: MTT cell proliferation assay, MCF-7; type: cell-based, human; settings: for IC50: Homo sapiens, MCF7, 48 h, read-out: IC50 (Mean ± SEM) MCF-7; for antiproliferative activity against MCF-7: MTT assay
Ishikawa cell line = assay: MTT cell proliferation assay, Ishikawa; type: cell-based, human; settings: for IC50: Homo sapiens, Ishikawa, 48 h, read-out: IC50 (Mean ± SEM) Ishikawa
PC-3 cells = assay: MTT cell proliferation assay, PC-3; type: cell-based; settings: Homo sapiens, PC-3, 48 h, read-out: IC50 (Mean ± SEM) PC-3
MDA-MB-231 cells = assay: MTT cell proliferation assay, MDA-MB-231; type: cell-based, human; settings: for IC50: Homo sapiens, MDA-MB-231, 48 h, read-out: IC50 (Mean ± SEM) MDA-MB-231; for antiproliferative activity against MDA-MB-231: MTT assay
HeLa cells = assay: MTT cell proliferation assay, HeLa; type: cell-based, human; settings: for IC50: Homo sapiens, HeLa, 48 h, read-out: IC50 (Mean ± SEM) HeLa; for antiproliferative activity against HeLa: MTT assay
[1] = tested on: various cancer cell lines; assay: MTT assay, panel of cancer cell lines; type: cell-based; settings: Homo sapiens, read-out: IC50 against various cancer cell lines

Row | SMILES | IC50 (HEK-293 cells) | IC50 (MCF-7 cells) | antiproliferative activity against MCF-7 (MCF-7 cells) | IC50 (Ishikawa cell line) | IC50 (PC-3 cells) | IC50 (MDA-MB-231 cells) | antiproliferative activity against MDA-MB-231 (MDA-MB-231 cells) | IC50 (HeLa cells) | antiproliferative activity against HeLa (HeLa cells) | IC50 [1] | antiproliferative activity against Ishikawa (Ishikawa cell line; MTT assay)
1 | Cc1nn(-c2ccccc2)c(O)c1C(c1ccccc1)c1c(C)nn(-c2ccccc2)c1O [3a] | > 40 µM | 35.1 ± 1.38 µM | weak inhibition | 30.2 ± 2.12 µM | > 40 µM | 30.8 ± 1.49 µM | weak inhibition | 30.7 ± 1.38 µM | weak inhibition |  | 
2 | Cc1nn(-c2ccccc2)c(O)c1C(c1ccc(Cl)cc1)c1c(C)nn(-c2ccccc2)c1O [3c] | > 40 µM | 16.3 ± 0.62 µM | good inhibition | 36.9 ± 1.38 µM | > 40 µM | 22.4 ± 1.34 µM | mild inhibition | 32.4 ± 1.62 µM | weak antiproliferative activity | 5.45 to 18.3 µM | weak antiproliferative activity
